Test results as given in PMC2918893 (Journal of biomolecular NMR, 2009).

Molecular target: T1, HisF (cyclase subunit of imidazole glycerol phosphate synthase, IGPS) (Thermotoga maritima, UniProt Q9X0C6)
T1 sequence (Q9X0C6 1-253): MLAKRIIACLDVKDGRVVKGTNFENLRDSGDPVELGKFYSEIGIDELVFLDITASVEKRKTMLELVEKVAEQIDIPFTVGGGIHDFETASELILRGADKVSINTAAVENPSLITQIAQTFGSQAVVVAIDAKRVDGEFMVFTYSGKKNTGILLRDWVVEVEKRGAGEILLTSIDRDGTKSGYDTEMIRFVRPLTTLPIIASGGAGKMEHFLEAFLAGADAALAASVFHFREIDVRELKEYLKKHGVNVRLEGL
T1 sequence (Q9X0C8 1-201 partner): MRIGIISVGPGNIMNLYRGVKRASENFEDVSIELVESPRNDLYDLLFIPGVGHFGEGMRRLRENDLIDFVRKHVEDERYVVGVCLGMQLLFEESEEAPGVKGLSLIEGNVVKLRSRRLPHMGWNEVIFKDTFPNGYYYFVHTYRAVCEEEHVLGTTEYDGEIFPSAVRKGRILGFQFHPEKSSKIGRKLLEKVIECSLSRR
Experiment: 1H-15N TROSY NMR titration, global fit of chemical shift changes of […] residues
Assay type: binding

In the case of `O=P(O)(O)OC[C@@H](O)[C@@H](O)c1c[nH]cn1` [IGP], the Kd is reported as 500 ± 100 µM.
